Laboratory results published in patent publication US20240300945A1, “CLY SERIES COMPOUND, PREPARATION METHOD THEREFOR AND USE THEREOF IN PREPARATION OF DRUGS” (NANJING WELLBEST PHARMACEUTICAL CO., LTD, priority 2021, published 2024).
Marks after values point to notes of the source that are not given here.

Columns and labels:
[1] = test system: chloasma model of guinea pig; assay: Chloasma model of guinea pig: tyrosine, MDA content and SOD activity of skin tissue; assay type: in vivo; conditions: 0.25% cream on the skin once a day, 30 days
From the text: 1.1.4 Preparation method of treatment cream: The excipient matrix components include methyl silicone oil (15%), stearic acid (6%), white vaseline (5%), liquid paraffin (5%), octadecanol (5%), glycerin (20%), alkyl aryl polyglycol ether (1%), fatty alcohol polyoxyethylene ether (1%), […] (1%), ethyl paraben (0.1%), distilled water (about 31-55%), and are mixed with appropriate amount of CLY series compounds to form 0.25% mixed emulsion. The cream matrix used in this embodiment refers to the matrix components after the active ingredients are removed from the cream.
According to the body weight, they were randomly divided into the model control group (applied cream matrix), blank control group (applied cream matrix), CLY-1 treatment group (applied 0.25% CLY-1 cream on the skin), CLY-2 treatment group (0.25% CLY-2 cream on the skin), CLY-3 treatment group (0.25% CLY-3 cream on the skin), CLY-4 treatment group (0.25% CLY-4 cream on the skin), CLY-5 treatment group (0.25% CLY-5 cream on the skin) CLY-8 treatment group (0.25% CLY-8 cream on the skin), CLY-11 treatment group (0.25% CLY-11 cream on the skin), CLY-19 treatment group (0.25% CLY-19 cream on the skin), CLY-36 treatment group (0.25% CLY-36 cream on the skin), CLY-39 treatment group (0.25% CLY-39 cream on the skin), positive treatment group (0.25% arbutin cream on the skin), 6 in each group. In addition to the blank control group, all guinea pigs in the other groups were injected with 20 mg/ml progesterone injection (7.5 mg/kg) into the muscle at the root of the hind leg, once a day, for 30 consecutive days to establish the chloasma model. […] After modeling, the guinea pigs in the model control group, blank control group, each CLY series treatment group, and positive treatment group were treated with corresponding cream on the back for intervention, once a day, for 30 consecutive days.
Took one piece of skin tissue from each guinea pig, separately. Washed it with precooled normal saline, removed subcutaneous fat and other connective tissue, and then wiped it dry. Each piece of skin tissue was cut to 0.5 g. Then put it into five small tubes containing 2.0 ml of precooled normal saline. The high-speed dispersion machine homogenizes at a speed of […], lasted for 10 seconds, repeated once, centrifuged at a speed of 3500 r/m for 15 minutes, and took the supernatant. Tyrosine was determined by HPLC, MDA was determined by the thiobarbituric acid method, SOD was determined by the xanthine oxidase method, and tyrosine, MDA content, and SOD activity were determined according to the instructions of the kit.
SPSS16.0 software was used for statistics. The measurement data were expressed by mean±standard deviation (x±s). The comparison between multiple groups was performed by one-way ANOVA, and the comparison between groups was performed by t-test. P<0.05 was statistically significant.

mouse hair loss model = assay: Mouse hair loss (androgenic alopecia) model: hair length; assay type: in vivo, C57BL/6 mice; conditions: mouse AGA model; external 2% tincture twice a day
From the text: (1) Preparation method of tincture of compounds CLY-1, CLY-2, CLY-3, CLY-4, CLY-8, CLY-11, CLY-19, CLY-36, and CLY-39: 60% ethanol was mixed with the above compounds to prepare a tincture of 2% concentration.
(2) Positive treatment drug: 2% minoxidil tincture (produced by the Institute of Dermatology, Chinese Academy of Medical Sciences)
The experimental mice were divided into the negative control group (external use of 60% ethanol), model group (external use of 60% ethanol), positive control group (external use of 2% minoxidil tincture), CLY-1 external treatment group (external use of 2% CLY-1 tincture), CLY-2 external treatment group (external use of 2% CLY-2 tincture), CLY-3 external treatment group (external use of 2% CLY-3 tincture), CLY-4 external treatment group (external use of 2% CLY-4 tincture), CLY-8 external treatment group (external use of 2% CLY-8 tincture) CLY-11 external treatment group (2% CLY-11 tincture), CLY-19 external treatment group (2% CLY-19 tincture), CLY-36 external treatment group (2% CLY-36 tincture), and CLY-39 external treatment group (2% CLY-39 tincture). There were 6 animals in each group, half male and half female. An area of 4 cm×5 cm from the back of experimental mice with hair removed was selected, and the hair removal area was painted yellow with 3% picric acid solution to determine the observation area of the hair removal experiment. In addition to the negative control group, mice in other groups were injected subcutaneously with testosterone propionate injection [8 ml/(kg·d)] at the back of the neck, once a day, for 60 consecutive days, to establish the model of androgenic alopecia (AGA). At the same time of modeling, the rats in the corresponding drug group were smeared with drugs on the observation area of the back at the rate of 1 ml/(piece·time), twice a day, with an interval of 2 hours. The normal control group and the model control group were smeared with the excipient (60% ethanol solution), 1 ml/(one time), twice a day, for 60 consecutive days.
10 hairs were extracted from the observation area on the back of each mouse every 15 days after administration, and the hair length was measured with a vernier caliper. After 60 days of administration, the skin of the experimental observation area was taken for routine tissue dehydration, paraffin embedding, HE staining, and light microscopy to observe the histopathological changes of mouse skin hair follicles and sebaceous glands. Semi-quantitative analysis was performed for each group. The grading criteria are as follows: the normal structure of dermal tissue cells, subcutaneous hair follicles, and sebaceous glands is marked as […]: no hyperplasia of dermal tissue is found, the lesions of hair follicles and sebaceous glands are limited, and no inflammation is found under the skin is marked as “+”: no obvious hyperplasia of dermal tissue is found, and the follicles are obviously cystic. No obvious hyperplasia of sebaceous glands is found, and no inflammation is found under the skin is marked as “+”: the dermal tissue has segmental hyperplasia, which is not obvious, A small number of hair follicles have cystic changes, and the sebaceous glands have mild hyperplasia and hypertrophy. There is no obvious inflammation under the skin, which is marked as “++”: the dermal tissue cells of the skin have different degrees of segmental hyperplasia, and some hair follicles have cystic changes, showing uneven size of hair follicles, and no cells around. The sebaceous glands have hyperplasia, and the nuclei in the proliferative glands are few. A few subcutaneous mild inflammatory hyperplasia is marked as “+++”.

Row | SMILES | MDA [1] | SOD [1] | tyrosine [1] | 15-day hair length (mouse hair loss model) | 30-day hair length (mouse hair loss model) | 45-day hair length (mouse hair loss model) | 60-day hair length (mouse hair loss model)
1 | CN1CCC[C@@H](N(C(=O)c2ccc(-n3nnc4cccnc43)cc2)c2ncccc2Cl)C1 [CLY-1, (R)-4-(3H-[1,2,3]triazolo[4,5-b]pyridin-3-yl)-N-(3-chloropyridin-2-yl)-N-(1-methylpiperidin-3-yl)benzamide] | 11.32 ± 1.15 nmol/mL | 103.65 ± 9.63 NU/ml | 0.45 ± 0.07 µg | 0.653* cm | 0.851* cm | 0.858* cm | 0.951* cm
2 | CCN1CCC[C@@H](N(C(=O)c2ccc(-n3nnc4cccnc43)cc2)c2ncccc2Cl)C1 [CLY-2, (R)-4-(3H-[1,2,3]triazolo[4,5-b]pyridin-3-yl)-N-(3-chloropyridin-2-yl)-N-(1-ethylpiperidin-3-yl)benzamide] | 10.86 ± 1.19 nmol/mL | 105.23 ± 9.82 NU/ml | 0.43 ± 0.06 µg | 0.676* cm | 0.865* cm | 0.869* cm | 0.962* cm
3 | CNC1CCCC(N(C(=O)c2ccc(-n3nnc4cccnc43)cc2)c2ncccc2Cl)C1 (stereo not shown) [CLY-3] | 11.57 ± 1.18 nmol/mL | 97.45 ± 9.23 NU/ml | 0.51 ± 0.07 µg | 0.646* cm | 0.843* cm | 0.847* cm | 0.946* cm
4 | O=C(c1ccc(-n2nnc3cccnc32)cc1)N(c1ncccc1Cl)C1CCCC(O)C1 (stereo not shown) [CLY-4] | 11.62 ± 1.15 nmol/mL | 95.12 ± 8.65 NU/ml | 0.53 ± 0.06 µg | 0.641* cm | 0.837* cm | 0.841* cm | 0.939* cm
5 | COC1CCCC(N(C(=O)c2ccc(-n3nnc4cccnc43)cc2)c2ncccc2Cl)C1 (stereo not shown) [CLY-5] | 10.65 ± 1.14 nmol/mL | 105.89 ± 9.86 NU/ml | 0.43 ± 0.05 µg | – | – | – | –
6 | O=C(c1ccc(-n2nnc3cccnc32)cc1)N(c1ncccc1Cl)[C@@H]1CCNC1 [CLY-8, (R)-4-(3H-[1,2,3]triazolo[4,5-b]pyridin-3-yl)-N-(3-chloropyridin-2-yl)-N-(pyrrolidin-3-yl)benzamide] | 10.59 ± 1.12 nmol/mL | 105.68 ± 9.75 NU/ml | 0.43 ± 0.03 µg | 0.682 * cm | 0.872* cm | 0.886* cm | 0.971* cm
7 | NC1CCCC(N(C(=O)c2ccc(-n3nnc4cccnc43)cc2)c2ncccc2Cl)C1 (stereo not shown) [CLY-11] | 11.62 ± 1.21 nmol/mL | 95.13 ± 9.16 NU/ml | 0.54 ± 0.06 µg | 0.637* cm | 0.831* cm | 0.834* cm | 0.932* cm
8 | O=C(c1ccc(-c2ccccc2-c2nnn[nH]2)cc1)N(c1ncccc1Cl)[C@@H]1CCCNC1 [CLY-19] | 11.75 ± 1.26 nmol/mL | 96.53 ± 9.21 NU/ml | 0.56 ± 0.07 µg | 0.623* cm | 0.826* cm | 0.828* cm | 0.915* cm
9 | O=C(c1ccc(-c2ccccc2Cl)cc1)N(c1ncccc1Cl)[C@@H]1CCCNC1 [CLY-36] | 11.83 ± 1.27 nmol/mL | 93.42 ± 9.03 NU/ml | 0.58 ± 0.08 µg | 0.628* cm | 0.824* cm | 0.823* cm | 0.919* cm
10 | Nc1ccccc1-c1ccc(C(=O)N(c2ncccc2Cl)[C@@H]2CCCNC2)cc1 [CLY-39] | 10.81 ± 1.23 nmol/mL | 103.16 ± 9.65 NU/ml | 0.46 ± 0.05 µg | 0.665* cm | 0.845* cm | 0.867* cm | 0.956* cm
11 | Nc1cc(N2CCCCC2)nc(N)[n+]1[O-] [Positive control group, minoxidil, reference compound] | – | – | – | 0.591* cm | 0.814* cm | 0.825 cm | 0.842* cm
